Consider two compounds from paper PMC4727756 (Journal of analytical & bioanalytical techniques, 2015).

The nature of one data set: in vitro. Format: in vitro ADME. How it is done:
Short-term stabilities were also determined for post-preparation QC standards stored at room temperature for 10 hours. The QC results obtained after storage were compared with spiked concentration values by determining the percentage ratios of experimental values divided by spiked values.

Data set [1] in a line: stability of stock and working solutions (LC-MS/MS). The data set is classed as physicochemical. The note with it: stored at 4°C for at least 6 months. How it is done:
The stabilities of stock and working solutions for both analyte and internal standard were also evaluated. Stock solutions of analyte and IS were stored at −20°C for 9 months.

The compound `Cc1ccc(C)c(COc2cc(NC(=O)c3cc(C(F)(F)F)cc(C(F)(F)F)c3)ccc2N(C)S(C)(=O)=O)c1` [BMCL26] showed a recovery at 8 h, 1.25 ng/mL in the data set “in vitro” (rat plasma QC samples, rat plasma, bench top (8 hr) at room temp, 1.25 ng/ml) of 103%. For the same compound, the recovery at 8 h, 80 ng/mL in the data set “in vitro” (rat plasma QC samples, rat plasma, bench top (8 hr) at room temp, 80.00 ng/ml) is 103%. The recovery at 3 days, 1.25 ng/mL in “in vitro” (rat plasma QC samples, rat plasma, freeze thaw (3 cycles), 1.25 ng/ml) worked out at 98.1%. The recovery at 3 days, 80 ng/mL in the data set “in vitro” (rat plasma QC samples, rat plasma, freeze thaw (3 cycles), 80.00 ng/ml) turned out to be 105%. The same compound came in with a recovery at 10 h, 1.25 ng/mL in “in vitro” (rat, post-extraction (post-preparation) rat plasma QC samples, post extraction (10 hr) at room temp, 1.25 ng/ml) of 102%. In addition, the recovery at 10 h, 80 ng/mL in “in vitro” (rat, post-extraction (post-preparation) rat plasma QC samples, post extraction (10 hr) at room temp, 80.00 ng/ml) was 108%. Also, in data set [1] (two QC standards (1.25 and 80 ng/mL)), the “stability of working solutions” value was 99.60–105.00%.
In the case of `Cc1ccc(C)c(COc2cc(NC(=O)C3CCCCC3)ccc2N(C)S(C)(=O)=O)c1` [JCC76, N-(3-(2,5-dimethylbenzyloxy)-4-(methylmethylsulfonamido)phenyl)cyclohexanecaboxamide, reference compound], in data set [1] (7.5 ng/mL IS), the “stability of working solutions” value is given as 115.60%.
